Assay results: publication PMC9081329, “Pharmacokinetics, Mass Balance, Excretion, and Tissue Distribution of Plasmalogen Precursor PPI-1011” (Frontiers in Cell and Developmental Biology, 2022)
Where two headings read alike, the source gives them in different places.

Experiments:
[1] = set-up: method as in manuscript in preparation; conditions: 28-day repeat dosing at 400 mg/kg in primates; ref manuscript in preparation; cited from earlier work
[2] = set-up: method as in manuscript in preparation; conditions: doses up to 1,000 mg/kg in adult rats; ref manuscript in preparation; cited from earlier work
[3] = Formulation concentration; assay type: physicochemical

## CC/C=C\C/C=C\C/C=C\C/C=C\C/C=C\C/C=C\CCC(=O)OC(COCCCCCCCCCCCCCCCC)COC(=O)CCCCC1CCSS1 (stereo not drawn) [PPI-1011, 1-O-hexadecyl-2-O-cis-4,7, 10, 13, 16, 19-docosahexaenoyl-3-O-lipoyl glycerol]
[1]
  Toxicity or adverse effects: no toxicity or adverse effects
[2]
  Toxicity or adverse effects: no toxicity or adverse effects
[3]
  Concentration amenable to formulation: ≤ 500000 µg/mL
